# Entries after “also recorded” stand apart in the source; their conditions may differ.
# Key:
# [1] = system: HCT116 colon cancer cells; assay: cDNA microarray of HCT116 colon cancer cells; format: cell-based; settings: HCT116, 1 or 2 days herbacetin
# Experimental: FIGS. 7A-7D. Profiling of gene expression in HCT116 colon cancer cells treated with herbacetin 1 or 2 days was assessed by microarray. […] (d) RT-PCR validation of differentially expressed genes.
# RNA samples from cells treated or not treated for 1 or 2 days with herbacetin were used. Data were analyzed using hierarchical clustering and the DAVID database as previously described (Sturn, A., Quackenbush, J. & Trajanoski, Z. Genesis: cluster analysis of microarray data. Bioinformatics 18, 207-208 (2002); Huang da, W., Sherman, B. T. & Lempicki, R. A. Systematic and integrative analysis of large gene lists using DAVID bioinformatics resources. Nat Protoc 4, 44-57 (2009)).
# ODC [2] = target: T1, ODC (Homo sapiens, UniProt P11926); assay: pull-down assay with herbacetin-conjugated Sepharose 4B beads (recombinant ODC or HCT116 lysate); format: binding; settings: recombinant ODC protein or HCT116 cell lysate, Western blot
# T1 sequence (P11926 1-461): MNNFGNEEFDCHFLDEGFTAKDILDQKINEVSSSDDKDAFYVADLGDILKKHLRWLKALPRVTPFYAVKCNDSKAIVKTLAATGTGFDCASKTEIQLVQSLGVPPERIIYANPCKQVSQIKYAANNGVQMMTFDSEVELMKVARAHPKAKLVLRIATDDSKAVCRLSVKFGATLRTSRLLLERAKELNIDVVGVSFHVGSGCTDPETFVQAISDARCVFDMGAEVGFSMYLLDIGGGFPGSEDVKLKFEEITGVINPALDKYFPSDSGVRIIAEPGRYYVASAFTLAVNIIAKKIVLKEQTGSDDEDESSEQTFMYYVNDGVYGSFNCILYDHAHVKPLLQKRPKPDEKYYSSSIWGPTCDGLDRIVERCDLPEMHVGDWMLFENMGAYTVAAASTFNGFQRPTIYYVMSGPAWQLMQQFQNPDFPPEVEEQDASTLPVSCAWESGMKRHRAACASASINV
# Experimental: A recombinant human ODC protein (200 ng) or total cell lysates (500 μg) to were incubated with herbacetin Sepharose 4B (or Sepharose 4B only as a control) beads (50 μl, 50% slurry) in reaction buffer (50 mM Tris pH 7.5, 5 mM EDTA, 150 mM NaCl, 1 mM DTT, 0.01% NP40, 2 μg/mL bovine serum albumin). After incubation with gentle rocking overnight at 4° C., the beads were washed 5 times with buffer (50 mM Tris pH 7.5, 5 mM EDTA, 150 mM NaCl, 1 mM DTT, 0.01% NP40) and binding was determined by Western blotting.
# [3] = system: SKH-1 hairless mice, solar UV-induced skin tumors; assay: solar UV induced-skin tumor mouse model; format: in vivo; settings: herbacetin 100 or 500 nmol topical for 7 weeks; relative to vehicle group
# Experimental: Mice were exposed to solar-UV (48 kJ/UVA, 2.9 kJ/UVB) 3 times weekly for 12 weeks. The solar UV treatment was discontinued and at twenty weeks later, mice were topically treated with 100 or 500 nmol of herbacetin (in acetone) for an additional 7 weeks. Mice (8-9 weeks old) were divided into three groups: 1) solar UV+vehicle group (n=4); 2) solar UV+100 nmol of herbacetin (n=4) group; 3) solar UV+500 nmol of herbacetin (n=4). The volume of tumors per mouse was recorded weekly.
# ODC [4] = target: T1, ODC; assay: ODC enzyme assay with recombinant ODC protein; format: biochemical; settings: in vitro
# Experimental: (§1) FIGS. 5A-5E. The effect of herbacetin on ODC activity was assessed in (a) DLD-1 and (b) HCT116 colon cancer cells. Cell lysates were incubated for 15 min with reaction buffer and different doses of herbacetin or DFMO and then incubated at 37° C. for 1 h. Herbacetin (c) and kaempferol (d) were modeled as allosteric inhibitors with the ODC crystal structure. (e) The effect of herbacetin or kaempferol on ODC activity was assessed using a human ODC recombinant protein. Each reaction was incubated at 37° C. for 1 h and ODC activity was measured as the release of CO2 from L-[1-C^14] ornithine. Data are represented as means±S.D. of triplicate values. The asterisk (*) indicates a significant difference (p<0.05) between herbacetin-treated samples compared to untreated or kaempferol-treated samples.
# (§2) ODC activity was measured as the release of CO2 from L-[1-C^14] ornithine as previously described ([…]).
# ODC [5] = target: T1, ODC; assay: ODC activity in colon cancer cells (HCT116, DLD-1 lysates); format: cell-based; parameters: endogenous in cells; host or cells: HCT116 and DLD-1 colon cancer cells (lysates); settings: compared with DFMO
# Experimental: as §1, §2
# [6] = system: activator protein-1 (AP-1); assay: AP-1 reporter activity in HCT116 cells; format: cell-based; settings: HCT116 cells treated 48 h
# Experimental: FIGS. 3A-3H. Anticancer effect of herbacetin. (a) The effect of herbacetin on ODC activity in colon cancer cell lines was measured as the release of CO2 from L-[1-C^14] ornithine. […] (b) The effect of herbacetin and DFMO on the growth of colon cancer cells and (c) TPA-induced JB6 cell growth was compared. Cells were incubated for 72 h and growth was estimated using the MTS assay. (d) The effect of herbacetin on anchorage independent HCT116 colon cancer cell growth and (e) TPA-induced JB6 cell transformation was assessed. Cells were incubated for 2 weeks and then colonies were counted using a microscope and the Image-Pro PLUS (v.6) computer software program. The effect of herbacetin on AP-1 reporter activity in (f) HCT116 colon cancer cells and (g) TPA-induced AP-1 reporter activity in JB6 mouse epidermal cells was analyzed using the substrates included in the reporter assay system. […] (h) The effect of herbacetin on the phosphorylation of ERK1 and ERK2 in HCT116 colon cancer cells was determined by Western blotting. […]
# We determined whether herbacetin affected the reporter activity of the MAP kinase target transcription factor, activator protein-1 (AP-1), in HCT116 cells or JB6 cells stimulated with TPA. […] AP-1 reporter activity was then measured (FIG. 3f, g) and the activity was attenuated by herbacetin in colon cancer cells and in TPA-activated JB6 cells. […]
structure (smiles),measurement,setting,value
"O=c1c(O)c(-c2ccc(O)cc2)oc2c(O)c(O)cc(O)c12 [herbacetin, 3,5,7,8,4′-Pentahydroxyflavone]",gene expression,[1],"significantly altered genes involved in proliferation, cell cycle, apoptosis and metabolic processes"
same,binding to ODC,ODC [2],directly binds to ODC; also recorded: bind to ornithine decarboxylase (ODC)
same,size (volume) of solar UV-induced skin tumors,[3],significantly decreased
same,ODC activity (release of CO2 from L-[1-C^14] ornithine),ODC [4],inhibited ODC activity similarly
same,suppression of ODC activity,ODC [5],more effectively; also recorded: markedly more effective than DFMO
same,AP-1 reporter activity,[6],attenuated

# Reference: patent publication US10532040B2, “Methods of treating cancer with herbacetin” (REGENTS OF THE UNIVERSITY OF MINNESOTA, priority 2011, dated 2020)
